Data: article PMC9241925, “DWV 3C Protease Uncovers the Diverse Catalytic Triad in Insect RNA Viruses” (Microbiology Spectrum, 2022)
Like-named read-outs stand apart in the source and are kept apart here. Primed or numbered codes have the meaning given here. *: point of attachment. Dabcyl′ = CN(C)c1ccc(/N=N/c2ccc(C(=O)*)cc2)cc1; EDANS = O=S(=O)(O)c1cccc2c(NCCN*)cccc12

Assays:
[1] = biological target: T1, DWV 3C protease (GST-DWV 3C^pro) (Deformed wing virus, UniProt Q8B3M2); test: FRET protease assay of GST-DWV 3C^pro with fluorogenic peptide substrate; type: biochemical; details: for IC50: pH 6.0, 33°C, n = 3, read-out: IC50 of DWV 3C^pro inhibitors; for Dependence of DWV 3C^pro inhibition on dithiothreitol: absence vs presence of 2 mM DTT
T1 construct: cDNA corresponding to amino acid 2094–2353 of DWV polyprotein; made in house; host or cells: E. coli BL21
T1 sequence (Q8B3M2 2094-2353): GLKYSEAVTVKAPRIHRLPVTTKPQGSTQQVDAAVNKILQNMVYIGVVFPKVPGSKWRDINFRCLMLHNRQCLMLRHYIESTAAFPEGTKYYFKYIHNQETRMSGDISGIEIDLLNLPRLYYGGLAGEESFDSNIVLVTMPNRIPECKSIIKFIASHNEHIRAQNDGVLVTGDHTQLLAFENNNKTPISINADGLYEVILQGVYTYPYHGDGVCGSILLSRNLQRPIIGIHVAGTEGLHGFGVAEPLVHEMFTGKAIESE
Experimental: Dabcyl-PVQAKPEMDNPNPGE-Edans derived from the cleavage site between L-protein and VP2 (underlined, 205-218 of polyprotein) was used as a peptide substrate to measure the protease activity. E was added to the C-terminus to link Edans. FRET experiments were performed with Varioskan LUX multimode microplate reader (Thermo Fisher). We measured 100 μL of reaction mixture with 50 mM Citrate buffer, pH 6.0, 150 mM NaCl, 2 mM EDTA, 2 mM DTT containing 1 μM GST-DWV 3C^pro and 20 μM fluorogenic peptide substrate in a 96-well flat-bottom white microplate at 33°C. The relative fluorescence was measured using an excitation wavelength of 336 nm and by monitoring the emission at 490 nm every 3 min for 30 min. In order to determine the optimal reaction condition for GST-DWV 3C^pro, various pH values, temperatures, and DTT concentrations were used. To test the effect of DTT on the activity, the protein dialyzed against TNE buffer was used. To determine the velocity of product formation, we precalibrated the instrument with the free Edans standard in the presence of 20 μM Dabcyl to calculate the relationship between relative fluorescence and substrate concentration. We calculated the kinetic parameters, Km, Vmax, and catalytic efficiency (Kcat/Km) assuming Michaelis-Menten kinetics for the cleavage of peptide.
To identify the inhibitors for DWV 3C^pro, various concentrations of the tested compounds were added. To determine the inhibitory effects of the various compounds, we preincubated the compound and enzyme on ice for 10 min prior to addition of the peptide substrate. To analyze the effects of ebselen, disulfiram, and carmofur, we used the enzyme dialyzed against TNE buffer and carried out the reaction with or without DTT. We determined the initial velocities of the enzymatic reactions and fitted to a sigmoidal dose-response equation with nonlinear regression analysis using GraphPad Prism 9. The data from three independent assays were used to determine IC50 value of each compound.

[2] = test system: main protease of SARS-CoV-2; details: by covalently modifying cysteine in the catalytic diad; cited from earlier work
DWV [3] = test: DWV replication (RdRP precursor synthesis, Western blot) in DWV-infected honey bee pupal head cells; type: cell-based, Deformed wing virus (DWV)
Experimental: Honey bee pupae with pale/pink eyes were collected from a mite-free colony. They were surface sterilized by washing with 10% bleach followed by sterile PBS three times (5 min for each wash). Heads from the pupae were dissected and homogenized seven times with 1 mL Grace culture medium using Dounce homogenizer (Loose fitting). The homogenate was then filtered through a cell strainer (Falcon) and the number of cells was counted. 10^6 cells were suspended in 100 μL of Grace medium containing 10% FBS, antibiotics (penicillin and streptomycin), and ebselen at the indicated concentration with or without DWV (MOI: 10) in 24-well plate at 33°C for 1 h. DWV used for this study was one of type A strains (VD-B7) we previously isolated from Varroa mite-infested pupa ([8]). […]
After DWV infection, the pupal head cells were collected by centrifugation, and then homogenized with 150 μL of RIPA buffer (20 mM Tris-HCl, pH 7.5, 150 mM NaCl, 1% NP-40, 0.5% sodium deoxycholate, 0.1% SDS) containing protease inhibitor cocktail. After centrifugation of the homogenate, the protein concentration of supernatant was measured using Enhanced BCA protein assay kit. The cell lysate with 20 μg of protein was analyzed by Western blot for each sample. […] Band intensity of 97 kDa RdRP precursor was measured by image-J.

[4] = test system: honey bee pupal head cells; test: Cell viability of honey bee pupal head cells (CellTiter-Lumi, intracellular ATP); type: cell-based, honey bee (Apis mellifera)
Experimental: Honey bee pupal head cells were prepared as described above and 100 μL cell suspension (2 × 10^6/mL) was inoculated to each well in 96-well plate. The cells were cultured in the presence of either DMSO or ebselen at the indicated concentrations at 33°C for 16 h. The cultured plate was first incubated at room temperature for 10 min followed by adding 100 μL of reagent solution (CellTiter-Lumi Luminescent Cell Viability assay kit, Beyotime). The plate was shaken at room temperature for 2 min to promote cell lysis, and then further incubated for 10 min to stabilize the chemiluminescence signal. The signal was detected using Varioskan LUX multimode microplate reader and depends on intracellular ATP level, thus the relative viability of cells.

DWV [5] = test system: DWV; set-up: method as in PMID 33643262; details: based on the synthesis of RdRP, cited from earlier work
human rhinovirus 3C^pro = test system: human rhinovirus 3C^pro; set-up: method as in PMID 21813612, PMID 27645381, PMID 10197965; details: cited from earlier work
enterovirus 3C^pro = test system: enterovirus 3C^pro; set-up: method as in PMID 21813612, PMID 27645381, PMID 10197965; details: cited from earlier work
[6] = tested in the presence of 2 mM DTT, 1 μM enzyme, 20 μM peptide substrate
[7] = compounds tested with or without 2 mM DTT and only effective without DTT
[8] = peptide substrate 2-20 μM, Michaelis-Menten

Row | Compound | IC50 [1, 6] | Dependence of DWV 3C^pro inhibition on dithiothreitol [1] | IC50 [1, 7] | Inhibition of the main protease of SARS-CoV-2 [2] | other results
1 | O=C1C(Cl)=C(Cl)C(=O)c2ncccc21 [6,7-dichloroquinoline-5,8-dione] | 129 ± 1.8 µM |  |  |  | 
2 | CCCCCCNC(=O)n1cc(F)c(=O)[nH]c1=O [Carmofur] |  | only effective without dithiothreitol | 127 ± 6.2 µM | inhibit the main protease of SARS-CoV-2 | 
3 | CCN(CC)C(=S)SSC(=S)N(CC)CC [Disulfiram] |  | only effective without dithiothreitol | 35.6 ± 0.8 µM | inhibit the main protease of SARS-CoV-2 | 
4 | O=c1c2ccccc2[se]n1-c1ccccc1 [Ebselen] |  | only effective without dithiothreitol | 1.66 ± 0.02 µM | inhibit the main protease of SARS-CoV-2 | Synthesis of the 97 kDa precursor of RdRP and 3C^pro (DWV [3]; DWV-infected pupal head cells, MOI 10, 33°C, 16 h, increasing ebselen concentrations vs DMSO): decreased the synthesis of the 97 kDa precursor of RdRP and 3C^pro in a concentration-dependent manner; DWV replication in honey bee cells (DWV [3]; cultured honey bee cells): inhibited DWV replication; Toxicity to honey bee cells [4]: toxic to the cells; Cell viability (luminescence) vs DMSO ([4]; 30 μM, 16 h, 33°C): no significant difference; Cell viability ([4]; 100 and 250 μM, 16 h, 33°C, vs DMSO): cell viability was reduced
5 | CC(C)C[C@H](NC(=O)OCc1ccccc1)C(=O)N[C@@H](CC1CCNC1=O)C(O)S(=O)(=O)O (some centres unmarked) [GC376] | 55.2 ± 4 µM |  |  |  | 
6 | O=c1c(O)c(-c2ccc(O)c(O)c2)oc2cc(O)cc(O)c12 [Quercetin] | 430 ± 62.8 µM |  |  |  | DWV replication in honey bee pupal cells (DWV [5]): inhibited DWV replication
7 | CCOC(=O)/C=C/[C@H](C[C@@H]1CCNC1=O)NC(=O)[C@@H](CC(=O)[C@@H](NC(=O)c1cc(C)on1)C(C)C)Cc1ccc(F)cc1 [Rupintrivir] | 0.36 ± 0.03 µM |  |  |  | DWV replication in honey bee pupal cells (DWV [5]): inhibited DWV replication; DWV replication in honey bee pupal cells (DWV [5]; listed as rupintrivir): suppresses DWV replication; IC50 (human rhinovirus 3C^pro): 0.005 µM; IC50 (enterovirus 3C^pro): 1.65 to 7.3 µM
8 | [Zn] [Zinc, zinc] | 15200 ± 422 µM |  |  |  | 
9 | PVQAKPEMDNPNPGE ({Dabcyl′}-PVQAKPEMDNPNPGE-{EDANS}) [Dabcyl-PVQAKPEMDNPNPGE-Edans, 15 amino acid fluorogenic FRET peptide substrate with the DWV L-protein/VP2 cleavage site] |  |  |  |  | Km [1, 8]: 4.23 ± 0.256 µM; Vmax [1, 8]: 0.2538 ± 0.0067 µM/min
